How the values were obtained:
Type in all cases: in vivo
[1] = system: velvetleaf (Abutilon theophrasti); assay: Test E pre-/postemergence: velvetleaf; details: Preemergence, scale 0 to 100
Excerpt: (§1) Seeds of plant species selected from corn (Zea mays), soybean (Glycine max), velvetleaf (Abutilon theophrasti), lambsquarters (Chenopodium album), poinsettia, wild (wild poinsettia, Euphorbia heterophylla), pigweed, palmer (palmer pigweed, Amaranthus palmeri), waterhemp (common waterhemp, Amaranthus rudis), smartweed (ladysthumb smartweed, Polygonum persicaria), surinam grass (Brachiaria decumbens), crabgrass, large (large crabgrass, Digitaria sanguinalis), crabgrass, Brazil (Brazilian crabgrass, Digitaria horizontalis), panicum, fall (fall panicum, Panicum dichotomiflorum), foxtail, giant (giant foxtail, Setaria faberii), foxtail, green (green foxtail, Setaria viridis), goosegrass (Eleusine indica), johnsongrass (Sorghum halepense), ragweed (common ragweed, Ambrosia elation), barnyardgrass (Echinochloa crus-galli), sandbur (southern sandbur, Cenchrus echinatus), arrowleaf sida (Sida rhombifolia), ryegrass, Italian (Italian ryegrass, Lolium multiflorum), dayflower, (VA) (Virginia dayflower, Commelina virginica), field bindweed (Convolvulus arvensis), cocklebur (common cocklebur, Xanthium strumarium), morningglory (Ipomoea coccinea), nightshade (eastern black nightshade, Solanum ptycanthum), kochia (Kochia scoparia), nutsedge, yellow (yellow nutsedge, Cyperus esculentus) and beggarticks (hairy beggarticks, Bidens pilosa) were planted into a silt loam soil and treated preemergence with test chemicals formulated in a non-phytotoxic solvent mixture which included a surfactant. At the same time, plants selected from these crop and weed species were planted in pots containing a growing medium comprising spaghnum peat moss, vermiculite, wetting agent and starter nutrients and treated with postemergence applications of some of the test chemicals formulated in the same manner. Plants ranged in height from 2 to 18 cm for postemergence treatments (1- to 4-leaf stage).
(§2) Treated plants and controls were maintained in a greenhouse for 14 to 21 days, after which time all species were compared to controls and visually evaluated. Plant response ratings, summarized in Table E, are based on a scale of 0 to 100 where 0 is no effect and 100 is complete control. A dash (-) response means no test result.

[2] = system: pigweed, palmer (palmer pigweed, Amaranthus palmeri); assay: Test E pre-/postemergence: pigweed, palmer; details: Preemergence, scale 0 to 100
Excerpt: as §1, §2

[3] = system: smartweed (ladysthumb smartweed, Polygonum persicaria); assay: Test E pre-/postemergence: smartweed; details: Preemergence, scale 0 to 100
Excerpt: as §1, §2

[4] = system: panicum, fall (fall panicum, Panicum dichotomiflorum); assay: Test E pre-/postemergence: panicum, fall; details: Preemergence, scale 0 to 100
Excerpt: as §1, §2

[5] = system: ragweed (common ragweed, Ambrosia elation); assay: Test E pre-/postemergence: ragweed; details: Preemergence, scale 0 to 100
Excerpt: as §1, §2

[6] = system: arrowleaf sida (Sida rhombifolia); assay: Test E pre-/postemergence: arrowleaf sida; details: Preemergence, scale 0 to 100
Excerpt: as §1, §2

kochia (Kochia scoparia) = assay: Test E pre-/postemergence: kochia; details: Preemergence, scale 0 to 100
Excerpt: as §1, §2

[7] = system: nutsedge, yellow (yellow nutsedge, Cyperus esculentus); assay: Test E pre-/postemergence: nutsedge, yellow; details: Preemergence, scale 0 to 100
Excerpt: as §1, §2

[8] = system: beggarticks (hairy beggarticks, Bidens pilosa); assay: Test E pre-/postemergence: beggarticks; details: Preemergence, scale 0 to 100
Excerpt: as §1, §2

[9] = system: waterhemp_RES1 (ALS/Triazine resistant common waterhemp, Amaranthus rudis); assay: Test F postemergence: waterhemp_RES1; details: scale 0 to 100
Excerpt: (§3) Seeds of plant species selected from corn (Zea mays), soybean (Glycine max), velvetleaf (Abutilon theophrasti), lambsquarters (Chenopodium album), poinsettia, wild (wild poinsettia, Euphorbia heterophylla), pigweed, palmer (palmer pigweed, Amaranthus palmeri), waterhemp (common waterhemp, Amaranthus rudis), surinam grass (Brachiaria decumbens), crabgrass, Brazil (Brazilian crabgrass, Digitaria horizontalis), panicum, fall (fall panicum Panicum dichotomiflorum), crabgrass, large (large crabgrass, Digitaria sanguinalis), foxtail, giant (giant foxtail, Setaria faberii), foxtail, green (green foxtail Setaria viridis), goosegrass (Eleusine indica), ragweed (common ragweed, Ambrosia elatior), barnyardgrass (Echinochloa crus-galli), sandbur (southern sandbur, Cenchrus echinatus), arrowleaf sida (Sida rhombifolia), ryegrass, Italian (Italian ryegrass, Lolium multiflorum), dayflower, VA (Virginia (VA) dayflower, Commelina virginica), field bindweed (Convolvulus arvensis), cocklebur (common cocklebur, Xanthium strumarium), morningglory (Ipomoea coccinea), nightshade (eastern black nightshade, Solanum ptycanthum), kochia (Kochia scoparia), nutsedge, yellow (yellow nutsedge, Cyperus esculentus), johnsongrass (Sorghum halepense), smartweed (ladysthumb smartweed, Polygonum persicaria), and beggarticks (hairy beggarticks, Bidens pilosa), were planted into a silt loam soil and treated preemergence with test chemicals formulated in a non-phytotoxic solvent mixture which included a surfactant. At the same time, plants selected from these crop and weed species and also pigweed (Amaranthus retroflexus), waterhemp_RES1 (ALS/Triazine resistant common waterhemp, Amaranthus rudis) and waterhemp_RES2 (ALS/HPPD resistant common waterhemp, Amaranthus rudis) were planted in pots containing a planting medium comprising spaghnum peat moss, vermiculite, wetting agent and starter nutrients treated with postemergence applications of some of the test chemicals formulated in the same manner. Plants ranged in height from 2 to 18 cm for postemergence treatments (1- to 4-leaf stage).
as §2

[10] = system: smartweed (ladysthumb smartweed, Polygonum persicaria); assay: Test F pre-/postemergence: smartweed
Excerpt: as §3, §2

[11] = Preemergence, 16 g ai/ha, scale 0 to 100, 0 no effect, 100 complete control
[12] = Preemergence, 31 g ai/ha, scale 0 to 100, 0 no effect, 100 complete control
[13] = Preemergence, 125 g ai/ha, scale 0 to 100
[14] = Preemergence, 250 g ai/ha, scale 0 to 100
[15] = Postemergence, 250 g ai/ha, scale 0 to 100
[16] = Postemergence, 31 g ai/ha, scale 0 to 100
[17] = Postemergence, 125 g ai/ha, scale 0 to 100

FC(F)(F)COc1nn(-c2ccc(C(F)(F)F)cc2)nc1Cc1ccnc(C(F)(F)F)c1 [Compound 14, 4-[[5-(2,2,2-trifluoroethoxy)-2-[4-(trifluoromethyl)phenyl]-2H-1,2,3-triazol-4-yl]methyl]-2-(trifluoromethyl)pyridine]
Plant response rating: Velvetleaf ([1]; 16 g ai/ha): 20
Plant response rating: Velvetleaf ([1]; 31 g ai/ha): 35
Plant response rating: Velvetleaf ([1]; 62 g ai/ha): 50
Plant response rating: Velvetleaf ([1]; 125 g ai/ha): 80
Plant response rating: Velvetleaf ([1]; 250 g ai/ha): 95
Plant response rating: Pigweed, Palmer ([2]; 16 g ai/ha): 75
Plant response rating: Pigweed, Palmer ([2]; 31 g ai/ha): 100
Plant response rating: Pigweed, Palmer ([2]; 62 g ai/ha): 100
Plant response rating: Pigweed, Palmer ([2]; 125 g ai/ha): 100
Plant response rating: Pigweed, Palmer ([2]; 250 g ai/ha): 100
Plant response rating: Smartweed ([3]; 31 g ai/ha): 25
Plant response rating: Smartweed ([3]; 62 g ai/ha): 80
Plant response rating: Smartweed ([3]; 250 g ai/ha): 80
Plant response rating: Panicum, Fall ([4]; 16 g ai/ha): 65
Plant response rating: Panicum, Fall ([4]; 31 g ai/ha): 80
Plant response rating: Panicum, Fall ([4]; 62 g ai/ha): 100
Plant response rating: Panicum, Fall ([4]; 125 g ai/ha): 100
Plant response rating: Panicum, Fall ([4]; 250 g ai/ha): 100
Plant response rating: Ragweed ([5]; 16 g ai/ha): 0
Plant response rating: Ragweed ([5]; 31 g ai/ha): 20
Plant response rating: Ragweed ([5]; 62 g ai/ha): 35
Plant response rating: Ragweed ([5]; 125 g ai/ha): 80
Plant response rating: Ragweed ([5]; 250 g ai/ha): 90
Plant response rating: Arrowleaf Sida ([6]; 16 g ai/ha): 10
Plant response rating: Arrowleaf Sida ([6]; 31 g ai/ha): 30
Plant response rating: Arrowleaf Sida ([6]; 62 g ai/ha): 30
Plant response rating: Arrowleaf Sida ([6]; 125 g ai/ha): 65
Plant response rating: Arrowleaf Sida ([6]; 250 g ai/ha): 80
Plant response rating: Kochia (kochia (Kochia scoparia); 16 g ai/ha): 20
Plant response rating: Kochia (kochia (Kochia scoparia); 31 g ai/ha): 50
Plant response rating: Kochia (kochia (Kochia scoparia); 62 g ai/ha): 90
Plant response rating: Kochia (kochia (Kochia scoparia); 125 g ai/ha): 98
Plant response rating: Kochia (kochia (Kochia scoparia); 250 g ai/ha): 100
Plant response rating: Nutsedge, Yellow ([7]; 16 g ai/ha): 0
Plant response rating: Nutsedge, Yellow ([7]; 31 g ai/ha): 0
Plant response rating: Nutsedge, Yellow ([7]; 62 g ai/ha): 0
Plant response rating: Nutsedge, Yellow ([7]; 125 g ai/ha): 0
Plant response rating: Nutsedge, Yellow ([7]; 250 g ai/ha): 15
Plant response rating: Beggarticks ([8]; 16 g ai/ha): 5
Plant response rating: Beggarticks ([8]; 31 g ai/ha): 50
Plant response rating: Beggarticks ([8]; 62 g ai/ha): 90
Plant response rating: Beggarticks ([8]; 125 g ai/ha): 98
Plant response rating: Beggarticks ([8]; 250 g ai/ha): 100

Cc1nn(-c2ccc(C(F)(F)F)cn2)nc1Oc1ccnc(C(F)(F)F)c1 [Compound 23]
Plant response rating: Velvetleaf ([1]; 16 g ai/ha): 0
Plant response rating: Velvetleaf ([1]; 31 g ai/ha): 0
Plant response rating: Velvetleaf ([1]; 62 g ai/ha): 10
Plant response rating: Velvetleaf ([1]; 125 g ai/ha): 65
Plant response rating: Velvetleaf ([1]; 250 g ai/ha): 65
Plant response rating: Pigweed, Palmer ([2]; 16 g ai/ha): 90
Plant response rating: Pigweed, Palmer ([2]; 31 g ai/ha): 90
Plant response rating: Pigweed, Palmer ([2]; 62 g ai/ha): 100
Plant response rating: Pigweed, Palmer ([2]; 125 g ai/ha): 100
Plant response rating: Pigweed, Palmer ([2]; 250 g ai/ha): 100
Plant response rating: Panicum, Fall ([4]; 16 g ai/ha): 0
Plant response rating: Panicum, Fall ([4]; 31 g ai/ha): 15
Plant response rating: Panicum, Fall ([4]; 62 g ai/ha): 80
Plant response rating: Panicum, Fall ([4]; 125 g ai/ha): 100
Plant response rating: Panicum, Fall ([4]; 250 g ai/ha): 100
Plant response rating: Ragweed ([5]; 16 g ai/ha): 0
Plant response rating: Ragweed ([5]; 31 g ai/ha): 0
Plant response rating: Ragweed ([5]; 62 g ai/ha): 0
Plant response rating: Ragweed ([5]; 125 g ai/ha): 0
Plant response rating: Ragweed ([5]; 250 g ai/ha): 25
Plant response rating: Arrowleaf Sida ([6]; 16 g ai/ha): 0
Plant response rating: Arrowleaf Sida ([6]; 31 g ai/ha): 0
Plant response rating: Arrowleaf Sida ([6]; 62 g ai/ha): 0
Plant response rating: Arrowleaf Sida ([6]; 125 g ai/ha): 0
Plant response rating: Arrowleaf Sida ([6]; 250 g ai/ha): 35
Plant response rating: Kochia (kochia (Kochia scoparia); 16 g ai/ha): 0
Plant response rating: Kochia (kochia (Kochia scoparia); 31 g ai/ha): 0
Plant response rating: Kochia (kochia (Kochia scoparia); 62 g ai/ha): 60
Plant response rating: Kochia (kochia (Kochia scoparia); 125 g ai/ha): 100
Plant response rating: Kochia (kochia (Kochia scoparia); 250 g ai/ha): 100
Plant response rating: Nutsedge, Yellow ([7]; 16 g ai/ha): 0
Plant response rating: Nutsedge, Yellow ([7]; 31 g ai/ha): 0
Plant response rating: Nutsedge, Yellow ([7]; 62 g ai/ha): 0
Plant response rating: Nutsedge, Yellow ([7]; 125 g ai/ha): 15
Plant response rating: Nutsedge, Yellow ([7]; 250 g ai/ha): 15

Cc1nn(-c2ccnc(Cl)c2)nc1Cc1ccnc(C(F)(F)F)c1 [Compound 141]
Plant response rating, Waterhemp, Res1 ([9]; 8 g ai/ha): 90
Plant response rating, Waterhemp, Res1 ([9]; 16 g ai/ha): 95
Plant response rating, Waterhemp, Res1 ([9]; 31 g ai/ha): 95
Plant response rating, Waterhemp, Res1 ([9]; 62 g ai/ha): 95
Plant response rating, Waterhemp, Res1 ([9]; 125 g ai/ha): 95

Cc1nn(-c2ccc(C(F)(F)F)c(F)c2)nc1Oc1ccnc(C(F)(F)F)c1 [Compound 148]
Plant response rating, Smartweed [10, 11]: 0
Plant response rating, Smartweed [10, 12]: 0
Plant response rating, Smartweed [10, 13]: 75
Plant response rating, Smartweed [10, 14]: 90

CCc1nn(-c2ccc(C(F)(F)F)cc2)nc1Oc1ccnc(C(F)(F)F)c1 [Compound 169]
Plant response rating, Smartweed [10, 15]: 35
Plant response rating, Smartweed ([10]; Postemergence, 16 g ai/ha, scale 0 to 100): 10
Plant response rating, Smartweed [10, 16]: 10
Plant response rating, Smartweed ([10]; Postemergence, 62 g ai/ha, scale 0 to 100): 15
Plant response rating, Smartweed [10, 17]: 25
Plant response rating, Smartweed [10, 11]: 0
Plant response rating, Smartweed [10, 12]: 0
Plant response rating, Smartweed [10, 13]: 40
Plant response rating, Smartweed [10, 14]: 95
Plant response rating, Waterhemp, Res1 ([9]; 16 g ai/ha): 85
Plant response rating, Waterhemp, Res1 ([9]; 31 g ai/ha): 90
Plant response rating, Waterhemp, Res1 ([9]; 62 g ai/ha): 90
Plant response rating, Waterhemp, Res1 ([9]; 125 g ai/ha): 95
Plant response rating, Waterhemp, Res1 ([9]; 250 g ai/ha): 95

CCc1nn(-c2ccc(F)c(F)c2)nc1Oc1ccnc(C(F)(F)F)c1 [Compound 171]
Plant response rating, Smartweed [10, 11]: 0
Plant response rating, Smartweed [10, 12]: 0
Plant response rating, Smartweed [10, 13]: 0
Plant response rating, Smartweed [10, 14]: 5

CCCc1nn(-c2ccc(F)c(F)c2)nc1Oc1ccnc(C(F)(F)F)c1 [Compound 172]
Plant response rating, Smartweed [10, 15]: 70
Plant response rating, Smartweed [10, 16]: 30
Plant response rating, Smartweed [10, 17]: 60
Plant response rating, Smartweed [10, 12]: 5
Plant response rating, Smartweed [10, 13]: 50
Plant response rating, Smartweed [10, 14]: 98
Plant response rating, Waterhemp, Res1 ([9]; 31 g ai/ha): 70
Plant response rating, Waterhemp, Res1 ([9]; 125 g ai/ha): 95
Plant response rating, Waterhemp, Res1 ([9]; 250 g ai/ha): 95

CCOc1nn(-c2ccc(F)cc2)nc1Cc1ccnc(C(F)(F)F)c1 [Compound 196, 4-[[5-ethoxy-2-(4-fluorophenyl)-2H-1,2,3-triazol-4-yl]methyl]-2-(trifluoromethyl)pyridine]
Plant response rating, Waterhemp, Res1 ([9]; 8 g ai/ha): 95
Plant response rating, Waterhemp, Res1 ([9]; 16 g ai/ha): 95
Plant response rating, Waterhemp, Res1 ([9]; 31 g ai/ha): 95
Plant response rating, Waterhemp, Res1 ([9]; 62 g ai/ha): 95
Plant response rating, Waterhemp, Res1 ([9]; 125 g ai/ha): 100

Source: US9302999B2, “Substituted triazoles as herbicides” (E. I. DU PONT DE NEMOURS AND COMPANY, priority 2012, dated 2016)
